These results are taken from patent US10028902B2, “Nuclear localization of GLP-1 stimulates myocardial regeneration and reverses heart failure” (BAYLOR RESEARCH INSTITUTE, priority 2013, dated 2018).

Data set [1] deals with rat hearts with adriamycin cardiomyopathy. Kind of data set: Adriamycin cardiomyopathy in rats: gross pathology, Masson's trichrome staining, echocardiography. The data set is classed as in vivo. How it is done:
(§1) Animal protocol-2: A total of 60 rats were divided into: (1) no treatment (normal control rats, n=12); (2) adriamycin (ADM)^38 injection only, at total dose of 15 mg/kg/ip, 2.5 mg/kg/ip 6 times over 2 weeks, n=12. (3) ADM plus GLP-1 peptide injection, at GLP-1 peptide fragment 7-37 human (dose of 50 nmol/kg/ip/time×6, N=12, from Sigma, St Louis, Mo.), (4) ADM injection plus UTMD-GLP1 peptide delivery (same dose of GLP-1 peptide fragment 7-37 human mixed with microbubble for UTMD), n=12; (5) ADM injection plus UTMD with pXL-BASII-CI-GLP-1/pCI-hyPB, n=12. Half rats were killed at 16 hours after last ADM injection; other half rats were killed at 4 weeks after UTMD. The thymidine analog, 5-bromo-2-deoxyuridine (BrdU) (100 mg/kg) was injected intraperitoneally 6 hours prior to euthanasia.
Animal protocol-3: UTMD was performed after established adriamycin cardiomyopathy defined as a fractional shortening <30% by echocardiography. There were 3 groups of rats as follows: (1) normal control rats, n=6; (2) UTMD with pXL-BASII-CI-DsRed/pCI-hyPB (n=6); (3) UTMD with pXL-BASII-CI-GLP-1/pCI-hyPB (n=12). All rats were killed 4 weeks after UTMD. The thymidine analog, 5-bromo-2-deoxyuridine (BrdU) (100 mg/kg) was injected intraperitoneally 6 hours prior to euthanasia.
Piggybac transposon donor plasmids and helper plasmids ratio (pXL-BASII-CI-GLP-1/pCI-hyPB) was 5:1. Microbubble or control solutions (0.5 ml diluted with 0.5 ml phosphate-buffered solution (PBS)) were infused over 5 min via pump (Genie, Kent Scientific, Torrington, Conn.). During the infusion, ultrasound was directed to the heart using a commercially available ultrasound transducer (S3, Sonos 5500, Philips Ultrasound, Bothell, Wash.). […]
(§2) Echocardiographic measurements of LV fractional shortening and LV posterior wall thickness were made from digital images acquired with a 12 MHz broadband transducer (S12 probe, Philips Ultrasound, Bothell, Wash.). Fractional shortening was evaluated from the following formula: FS=(LVIDd−LVIDs)/LVIDd×100.

For data set [2], the system named is FoxO1. Kind of data set: Myocardial nuclear FoxO1 in adriamycin cardiomyopathy rats (western blot, qRT-PCR). The data set is classed as in vivo, rat. How it is done:
as §1, with “euthanasia. […]” for “euthanasia.”
(§3) Nuclear proteins extracts from cardiac tissue with a NE-PER Nuclear and Cytoplasmic Extraction Kit (Thermo Scientific, Rockford, Ill. 61105, USA). Protein concentrations were determined using the BCA-200 Protein Assay kit (Pierce); equal amounts of protein were separated by SDS-PAGE. […] Horseradish peroxidase secondary antibodies were used, and chemiluminescence was determined using the Super Signal West Dura detection system (Pierce); nuclear marker (lamin) was used to confirm equal loading. […]
Background: Immunoblotting shows a protein as a band on a membrane.

Another data set relates to Topoisomerase IIβ. Description: Myocardial nuclear topoisomerase IIβ expression (western blot, qRT-PCR). The data set is classed as in vivo, rat. The conditions noted are these: ADM only or ADM plus UTMD-GLP-1NLS groups, P<0.001. How it is done:
[…] Half rats were killed at 16 hours after last ADM injection; other half rats were killed at 4 weeks after UTMD. The thymidine analog, 5-bromo-2-deoxyuridine (BrdU) (100 mg/kg) was injected intraperitoneally 6 hours prior to euthanasia.
Total RNA was isolated from 100 mg of harvested heart using the Trizol reagent (Invitrogen), according to the manufacturer's instructions and reverse-transcribed using Superscript III RT (Invitrogen). Real-time RT-qPCR analysis was performed on an ABI 7700 Sequence Detector (Applied Biosystems) using SYBR Green (RT2 SYBR Green qPCR Kit, Qiagen). Data were normalized to HKG expression (endogenous control). Changes in gene expression were normalized to control rat heart tissue. Complementary DNA PCR primer sequences information should be requested to the correspondence author.
as §3

Data set [3] relates to HL-1 cardiac muscle cell line. Description: Nuclear FoxO1 in HL-1 cardiac muscle cell line treated with adriamycin (immunofluorescent staining). Type of data set: cell-based. The note with it: 0.25, 0.5, and 1.0 μM, 48 hrs, HL-1 cells. As for the experimental part: The HL-1 cell line was a generous gift from Dr. William C. Claycomb^40 in Louisiana State University Medical Center, New Orleans, La. The cells were maintained in Claycomb basal medium (Sigma) supplemented with 10% fetal bovine serum, 0.1 mM norepinephrine and 2 mM L-glutamine. HL-1 cells were treated with adriamycin at 0 μM, 0.25 μM, 0.50 μM, or 1.00 μM for 48 hrs in complete growth medium, and were subjected to immunofluorescent staining.

For data set [4] the following is noted: intravenous infusions, patients with myocardial infarction or chronic heart failure; cited from earlier work.
In data set [5] the test system is FoxO1. Description: FOXO1 inhibitor injection in rats with ADM cardiomyopathy. The conditions noted are these: total dose 24 mg/kg ip. Type of data set: in vivo, rat. How it is done:
Animal protocol-4: Specific FOXO1 inhibitor (AS1842856, a small molecular compound from Millipore) was injected into rats with ADM cardiomyopathy to investigate if FOXO1 mediates ADM cardiomyopathy. There were 3 groups of rats as follows: (1) normal control rats, n=6; (2) ADM injection only group at total dose of 15 mg/kg/ip, 2.5 mg/kg/ip 6 times over 2 weeks, (n=6); (3) ADM at total dose of 15 mg/kg/ip, 2.5 mg/kg/ip 6 times over 2 weeks plus FOXO1 inhibitor injection (at total dose of 24 mg/kg/ip, 4 mg/kg/ip 6 times over 2 weeks (n=6). All rats were killed 4 weeks after ADM injection.
as §2

With “GLP-1 peptide fragment 7-37 human (HAEGTFTSDVSSYLEGQAAKEFIAWLVKGRG; Glucagon-like peptide 1(7-37); UniProt P01275 98-128, looked up) [GLP-1 peptide fragment 7-37 human from Sigma, injected ip]”, the “LV mass and wall thickness in adriamycin cardiomyopathy after therapy” value in data set [1] (echocardiography, FIGS. 4 and 11) was “not”.

For `COc1cccc2c1C(=O)c1c(O)c3c(c(O)c1C2=O)C[C@@](O)(C(=O)CO)C[C@@H]3O[C@H]1C[C@H](N)[C@H](O)[C@H](C)O1` [Adriamycin, adriamycin], in the data set on FoxO1 [2] (qRT-PCR, FIG. 6B, ADM only group, or ADM after UTMD GLP-1NLS gene delivery), the “FoxO1 mRNA level, fold relative to normal control or normal plus UTMD-GLP-1NLS groups” value stood at 12.6 fold. Further, the “FoxO1 in cardiac nuclear protein extracts” value in the data set with FoxO1 [2] (western blots, FIG. 6A) is given as “significant increase”. For the same compound, in data set [1] (echocardiography, adriamycin cardiomyopathy, total dose 15 mg/kg ip), the “LV mass and wall thickness” value is “decreased”. The “gross pathology of LV walls and cavities compared to normal controls” value in data set [1] (rats with adriamycin cardiomyopathy, FIG. 2 B, C) is “thin LV walls and dilated LV cavities”. Besides, the “TOP IIβ mRNA level in normal group, fold greater than in the treated group” value in the data set on Topoisomerase IIβ is reported as 18 fold. Besides, the “overexpression of nuclear FoxO1” value in data set [3] is “significantly activates”.

As to “GLP-1 protein: GLP-1 protein given by intravenous infusion to patients in cited studies”, in data set [4], the “global LV function and the function of ischemic LV segments” value is listed as “improved”.

Regarding `CCn1cc(C(=O)O)c(=O)c2c(N)c(F)c(NC3CCCCC3)cc21` [AS1842856], the “activation of myocardial nuclear FoxO1” value in the data set on FoxO1 [5] (ADM cardiomyopathy rats, FIG. 12) was “able to block”. Further, the “ADM cardiomyopathy (fractional shortening, LVPWd)” value with FoxO1 [5] (FIG. 12 panel A-B) is listed as “reverse”.
